What was measured:
Experiment in all cases: relative viability (nuclei count vs DMSO), 5 days (fraction); higher = more cells survive
[1] = compound: CCOc1cc2ncc(C#N)c(Nc3ccc(OCc4ccccn4)c(Cl)c3)c2cc1NC(=O)/C=C/CN(C)C [Neratinib] + Cc1cc(Nc2cc(N3CCN(C)CC3)nc(Sc3ccc(NC(=O)C4CC4)cc3)n2)n[nH]1 [Tozasertib] (partner 0.1 µM)
Procedure, shortened: (§1)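 Nuclei were stained with Hoechst during a one-step fixation (final 0.05% Triton X-100, 1% formaldehyde, 1 ug/ml Hoechst) carried out 5 days after dosing, then counted on 4× images. The cells, lung cancer lines in 1536-well plates, had been dosed by pin tool the day after seeding with one drug alone or a fixed anchor-drug dose plus five library-drug doses (not always all listed) in √10 steps. Relative viability is the nuclei count in treated wells divided by that in vehicle wells, and each value is the median of duplicate plates.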

[2] = compound: CCOc1cc2ncc(C#N)c(Nc3ccc(OCc4ccccn4)c(Cl)c3)c2cc1NC(=O)/C=C/CN(C)C [Neratinib] + CC1(C)CCC(c2ccc(Cl)cc2)=C(CN2CCN(c3ccc(C(=O)NS(=O)(=O)c4ccc(N[C@H](CCN5CCOCC5)CSc5ccccc5)c(S(=O)(=O)C(F)(F)F)c4)cc3)CC2)C1 [Navitoclax] (partner 0.5 µM)
Procedure, shortened: as §1

[3] = compound: CCOc1cc2ncc(C#N)c(Nc3ccc(OCc4ccccn4)c(Cl)c3)c2cc1NC(=O)/C=C/CN(C)C [Neratinib] + C[C@@H](Oc1cc(-c2cnn(C3CCNCC3)c2)cnc1N)c1c(Cl)ccc(F)c1Cl [Crizotinib] (partner 1 µM)
Procedure, shortened: as §1

[4] = compound: CCOc1cc2ncc(C#N)c(Nc3ccc(OCc4ccccn4)c(Cl)c3)c2cc1NC(=O)/C=C/CN(C)C [Neratinib] + O=C(CCCCCCC(=O)Nc1ccccc1)NO [Vorinostat] (partner 1 µM)
Procedure, shortened: as §1

## NCI-H2228
[1]; first compound 0.01 µM
  relative viability: 0.264
[1]; first compound 0.03162 µM
  relative viability: 0.281
[1]; first compound 0.1 µM
  relative viability: 0.178
[1]; first compound 0.3162 µM
  relative viability: 0.267
[1]; first compound 1 µM
  relative viability: 0.126
[2]; first compound 0.01 µM
  relative viability: 0.929
[2]; first compound 0.03162 µM
  relative viability: 1.57
[2]; first compound 0.1 µM
  relative viability: 0.802
[2]; first compound 0.3162 µM
  relative viability: 0.953
[2]; first compound 1 µM
  relative viability: 0.258
[3]; first compound 0.01 µM
  relative viability: 0.668
[3]; first compound 0.03162 µM
  relative viability: 0.44
[3]; first compound 0.1 µM
  relative viability: 0.294
[3]; first compound 0.3162 µM
  relative viability: 0.322
[3]; first compound 1 µM
  relative viability: 0.225
[4]; first compound 0.01 µM
  relative viability: 0.769
[4]; first compound 0.03162 µM
  relative viability: 0.871
[4]; first compound 0.1 µM
  relative viability: 0.623
[4]; first compound 0.3162 µM
  relative viability: 0.7
[4]; first compound 1 µM
  relative viability: 0.318

## LXF-289
[1]; first compound 0.01 µM
  relative viability: 0.22
[1]; first compound 0.03162 µM
  relative viability: 0.233
[1]; first compound 0.1 µM
  relative viability: 0.183
[1]; first compound 0.3162 µM
  relative viability: 0.174
[1]; first compound 1 µM
  relative viability: 0.186
[2]; first compound 0.01 µM
  relative viability: 0.975
[2]; first compound 0.03162 µM
  relative viability: 0.972
[2]; first compound 0.1 µM
  relative viability: 0.923
[2]; first compound 1 µM
  relative viability: 0.878
[3]; first compound 0.01 µM
  relative viability: 0.879
[3]; first compound 0.03162 µM
  relative viability: 0.871
[3]; first compound 0.1 µM
  relative viability: 0.75
[3]; first compound 0.3162 µM
  relative viability: 0.821
[3]; first compound 1 µM
  relative viability: 0.752
[4]; first compound 0.01 µM
  relative viability: 0.819
[4]; first compound 0.03162 µM
  relative viability: 0.866
[4]; first compound 0.1 µM
  relative viability: 0.732
[4]; first compound 0.3162 µM
  relative viability: 0.803
[4]; first compound 1 µM
  relative viability: 0.765

## NCI-H520
[1]; first compound 0.01 µM
  relative viability: 0.455
[1]; first compound 0.03162 µM
  relative viability: 0.418
[1]; first compound 0.1 µM
  relative viability: 0.401
[1]; first compound 0.3162 µM
  relative viability: 0.433
[1]; first compound 1 µM
  relative viability: 0.33
[2]; first compound 0.01 µM
  relative viability: 1.1
[2]; first compound 0.03162 µM
  relative viability: 1.42
[2]; first compound 0.1 µM
  relative viability: 0.965
[2]; first compound 0.3162 µM
  relative viability: 1.03
[2]; first compound 1 µM
  relative viability: 0.779
[3]; first compound 0.01 µM
  relative viability: 0.908
[3]; first compound 0.03162 µM
  relative viability: 0.929
[3]; first compound 0.1 µM
  relative viability: 0.773
[3]; first compound 0.3162 µM
  relative viability: 0.689
[3]; first compound 1 µM
  relative viability: 0.429
[4]; first compound 0.01 µM
  relative viability: 0.759
[4]; first compound 0.03162 µM
  relative viability: 0.686
[4]; first compound 0.3162 µM
  relative viability: 0.615
[4]; first compound 1 µM
  relative viability: 0.509

## NCI-H2170
[1]; first compound 0.01 µM
  relative viability: 0.842
[1]; first compound 0.03162 µM
  relative viability: 0.684
[1]; first compound 0.1 µM
  relative viability: 0.565
[1]; first compound 0.3162 µM
  relative viability: 0.266
[1]; first compound 1 µM
  relative viability: 0.183
[2]; first compound 0.01 µM
  relative viability: 0.391
[2]; first compound 0.03162 µM
  relative viability: 0.377
[2]; first compound 0.1 µM
  relative viability: 0.274
[2]; first compound 0.3162 µM
  relative viability: 0.196
[2]; first compound 1 µM
  relative viability: 0.184
[3]; first compound 0.01 µM
  relative viability: 1.14
[3]; first compound 0.03162 µM
  relative viability: 0.77
[3]; first compound 0.1 µM
  relative viability: 0.617
[3]; first compound 0.3162 µM
  relative viability: 0.302
[3]; first compound 1 µM
  relative viability: 0.223
[4]; first compound 0.01 µM
  relative viability: 0.862
[4]; first compound 0.03162 µM
  relative viability: 0.647
[4]; first compound 0.1 µM
  relative viability: 0.407
[4]; first compound 0.3162 µM
  relative viability: 0.205
[4]; first compound 1 µM
  relative viability: 0.239

## NCI-H2023
[1]; first compound 0.01 µM
  relative viability: 0.389
[1]; first compound 0.03162 µM
  relative viability: 0.33
[1]; first compound 0.1 µM
  relative viability: 0.292
[1]; first compound 0.3162 µM
  relative viability: 0.211
[1]; first compound 1 µM
  relative viability: 0.141
[2]; first compound 0.01 µM
  relative viability: 0.987
[2]; first compound 0.03162 µM
  relative viability: 1.04
[2]; first compound 0.1 µM
  relative viability: 0.909
[2]; first compound 0.3162 µM
  relative viability: 0.943
[2]; first compound 1 µM
  relative viability: 0.699
[3]; first compound 0.01 µM
  relative viability: 0.642
[3]; first compound 0.03162 µM
  relative viability: 0.523
[3]; first compound 0.1 µM
  relative viability: 0.484
[3]; first compound 0.3162 µM
  relative viability: 0.419
[3]; first compound 1 µM
  relative viability: 0.287
[4]; first compound 0.01 µM
  relative viability: 0.937
[4]; first compound 0.03162 µM
  relative viability: 0.532
[4]; first compound 0.1 µM
  relative viability: 0.495
[4]; first compound 0.3162 µM
  relative viability: 0.602
[4]; first compound 1 µM
  relative viability: 0.375

From the supplement of paper PMC10307832
